# Legend:
# [1] = target: PKMYT1 (Homo sapiens (Human), UniProt Q99640); assay: PKMYT1 HTRF Assay; format: binding; details: Tracer 178, GST-Tb, read-out: MYT1 HTRF IC50
# Experimental: Example A: PKMYT1 HTRF Assay
# Compound serial dilution was performed by Echo, and the final concentrations vary from 10 μM to 0.5 nM. This was filled by the addition of 5 μL/well of Enzyme solution to the assay plate containing the compound. The plate was centrifuged at 1000 rpm for 1 minute, and incubate 15 minutes at 25° C. Then 5 μL/well of tracer solution (Tracer 178) was added to initiate the reaction, and incubate for 60 minutes at 25° C. Next 5 μL GST-Tb was added into the assay plate, the plate was centrifuged at 1000 rpm for 1 minute, and incubate for 15 minutes at 25° C. The assay plate was read on Envision.
# [2] = target: WEE1 (Homo sapiens (Human), UniProt P30291); assay: WEE1 ADP-Glo Assay; format: biochemical; details: luminescence
# Experimental: Example B: WEE1 ADP-Glo Assay
# Compound serial dilution is performed by Echo, and the final concentrations vary from 10 μM to 0.5 nM. This was filled by the addition of 5 μL/well of Enzyme solution to the assay plate containing the compound. The plate was centrifuged at 1000 rpm for 1 minute, and incubate 15 minutes at 25° C. Then 5 μL/well of substrate solution was added to initiate the reaction, and incubate for 60 minutes at 25° C. Next 10 μL kinase detection reagent was added into the assay plate, the plate was centrifuged at 1000 rpm for 1 minute, and incubate for 60 minutes at 25° C. The assay plate was read on Envision for US LUM as RLU.
# PKMYT1, sequence (Q99640 whole entry, species assumed): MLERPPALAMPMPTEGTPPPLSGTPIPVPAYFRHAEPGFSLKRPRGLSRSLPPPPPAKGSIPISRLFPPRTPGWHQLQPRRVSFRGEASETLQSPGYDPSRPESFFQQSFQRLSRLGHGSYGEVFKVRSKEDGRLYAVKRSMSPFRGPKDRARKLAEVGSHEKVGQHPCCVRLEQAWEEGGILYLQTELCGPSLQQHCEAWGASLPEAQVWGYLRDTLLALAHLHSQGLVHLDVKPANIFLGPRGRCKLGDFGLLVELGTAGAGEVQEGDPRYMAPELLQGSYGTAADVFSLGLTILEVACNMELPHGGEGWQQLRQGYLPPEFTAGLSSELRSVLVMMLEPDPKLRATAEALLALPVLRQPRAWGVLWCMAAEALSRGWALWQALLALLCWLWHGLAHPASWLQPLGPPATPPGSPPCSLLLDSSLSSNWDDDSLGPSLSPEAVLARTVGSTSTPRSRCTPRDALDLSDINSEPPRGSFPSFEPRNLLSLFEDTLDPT
# WEE1, sequence (P30291 whole entry, species assumed): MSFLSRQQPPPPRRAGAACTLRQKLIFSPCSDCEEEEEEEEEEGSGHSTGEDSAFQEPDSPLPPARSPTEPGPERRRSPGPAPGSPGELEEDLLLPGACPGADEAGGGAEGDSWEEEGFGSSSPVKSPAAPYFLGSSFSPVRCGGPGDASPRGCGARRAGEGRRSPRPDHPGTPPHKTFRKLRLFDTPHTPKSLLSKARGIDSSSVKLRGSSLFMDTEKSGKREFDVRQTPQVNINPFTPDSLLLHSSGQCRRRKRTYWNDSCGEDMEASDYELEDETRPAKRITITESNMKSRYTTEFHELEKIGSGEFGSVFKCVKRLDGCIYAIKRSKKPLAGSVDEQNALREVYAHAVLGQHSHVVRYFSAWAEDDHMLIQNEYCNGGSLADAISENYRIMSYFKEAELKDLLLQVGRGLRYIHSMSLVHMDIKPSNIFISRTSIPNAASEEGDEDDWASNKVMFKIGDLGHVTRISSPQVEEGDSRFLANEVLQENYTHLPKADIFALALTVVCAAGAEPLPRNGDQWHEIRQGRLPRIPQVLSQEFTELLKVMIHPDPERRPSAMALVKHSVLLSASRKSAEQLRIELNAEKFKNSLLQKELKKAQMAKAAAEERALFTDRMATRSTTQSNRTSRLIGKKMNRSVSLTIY
Structure (SMILES),IC50 [1] [nM],IC50 [2] [nM]
"Cc1csc(-c2nn(-c3c(C)ccc(O)c3C)c(N)c2C(N)=O)n1 [Example 4, 5-amino-1-(3-hydroxy-2,6-dimethylphenyl)-3-(4-methylthiazol-2-yl)-1H-pyrazole-4-carboxamide]",< 10,–
"Cc1ccc(O)c(C)c1-n1nc(-c2nccs2)c(C(N)=O)c1N [Example 1, 5-amino-1-(3-hydroxy-2,6-dimethylphenyl)-3-(thiazol-2-yl)-1H-pyrazole-4-carboxamide]",< 10,50 to 500
"Cc1ccc(O)c(C)c1-n1nc(-c2ccn(C(F)F)n2)c(C(N)=O)c1N [Example 9, 5-amino-1′-(difluoromethyl)-1-(3-hydroxy-2,6-dimethylphenyl)-1H,1′H-[3,3′-bipyrazole]-4-carboxamide]",< 10,50 to 500
"Cc1c(O)ccc(Cl)c1-n1nc(-c2nccs2)c(C(N)=O)c1N [Example 6, 5-amino-1-(6-chloro-3-hydroxy-2-methylphenyl)-3-(thiazol-2-yl)-1H-pyrazole-4-carboxamide]",< 10,50 to 500
"Cc1ccc(O)c(C)c1-n1nc(-c2ccn(CC(C)(C)O)n2)c(C(N)=O)c1N [Example 8, 5-amino-1-(3-hydroxy-2,6-dimethylphenyl)-1′-(2-hydroxy-2-methylpropyl)-1H,1′H-[3,3′-bipyrazole]-4-carboxamide]",50 to 500,> 5000
"Cc1ccc(O)c(C)c1-n1nc(-c2nccs2)c(C(N)=O)c1N [Example 2, 5-amino-1-(3-hydroxy-2,6-dimethylphenyl)-3-(thiazol-2-yl)-1H-pyrazole-4-carboxamide]",–,50 to 500
"Cc1ccc(O)c(C)c1-n1nc(-c2nc(C(F)(F)F)cs2)c(C(N)=O)c1N [Example 3, 5-amino-1-(3-hydroxy-2,6-dimethylphenyl)-3-(4-(trifluoromethyl)thiazol-2-yl)-1H-pyrazole-4-carboxamide]",< 10,50 to 500
"Cc1ccc(O)c(C)c1-n1nc(-c2ncc3n2CCCC3)c(C(N)=O)c1N [Example 11, 5-amino-1-(3-hydroxy-2,6-dimethylphenyl)-3-(5,6,7,8-tetrahydroimidazo[1,5-a]pyridin-3-yl)-1H-pyrazole-4-carboxamide]",50 to 500,–
"Cc1cnc(-c2nn(-c3c(C)ccc(O)c3C)c(N)c2C(N)=O)s1 [Example 5, 5-amino-1-(3-hydroxy-2,6-dimethylphenyl)-3-(5-methylthiazol-2-yl)-1H-pyrazole-4-carboxamide]",< 10,–
"Cc1ccc(O)c(C)c1-n1nc(-c2nc3cnccc3s2)c(C(N)=O)c1N [Example 7, 5-amino-1-(3-hydroxy-2,6-dimethylphenyl)-3-(thiazolo[4,5-c]pyridin-2-yl)-1H-pyrazole-4-carboxamide]",10 to 50,500 to 5000
"Cc1ccc(O)c(C)c1-n1nc(-c2ccc(C(F)(F)F)cn2)c(C(N)=O)c1N [Example 10, 5-amino-1-(3-hydroxy-2,6-dimethylphenyl)-3-(5-(trifluoromethyl)pyridin-2-yl)-1H-pyrazole-4-carboxamide]",10 to 50,500 to 5000

# Source: US20250188094A1, “PYRAZOLE MEMBRANE-ASSOCIATED TYROSINE-AND THREONINE-SPECIFIC CDC2-INHIBITORY KINASE (PKMYT1) INHIBITORS AND USES THEREOF” (Insilico Medicine IP Limited, priority 2022, published 2025)
